Assay results reported in patent US20060100140A1, “Combination of a) n-{5-[4-(4-methyl-piperazino-methyl)-benzoylamido]2-methylphenyl}-4- (3-pyridyl)-2-pyrimidine-amine and b) a histone deacetylase inhibitor for the treatment of leukemia” (priority 2002, published 2006).

Tests used:
Format in all cases: cell-based, human
p21^CIP1 = test: Western analysis of p21CIP1 in K562 cells; settings: 2.0 μM SAHA ± 250 nM Compound I
Procedure: Immunoblot Analysis: Immunoblotting is performed as described previously (Yu et al., Nat. Rev. Cancer 1:294-202). In brief, after drug treatment cells are pelleted by centrifugation, and lysed immediately in Laemmli buffer [1×=30 mM Tris-base (pH 6.8), 2% SDS, […] β-mercaptoethanol, and 10% glycerol], and briefly sonicated. Homogenates are quantified using Coomassie protein assay reagent (Pierce, Rockford, Ill.). Equal amounts of protein (20 μg) are boiled for 10 min, separated by SDS-PAGE (5% stacker and 10% resolving), and electroblotted to nitrocellulose membrane. After blocking in TBS-T (0.05%) and 5% milk for 1 h at 22° C., the blots are incubated in fresh blocking solution with an appropriate dilution of primary antibody for 4 h at 22° C. […]
K562 cells are treated as above, and monitored for expression of Bcl-xL, Mcl-1, and XIAP. […]

K562 cells = test: Erythroid differentiation by hemoglobin (Hgb) production; settings: 2.0 μM SAHA ± 250 nM Compound I
Source text: In each case, values represent the means±S.D. for three separate experiments.

[1] = test system: Compound I-resistant K562 cells (K562R); test: Apoptosis by Wright Giemsa-stained cytospin slides in resistant cells; settings: Table 7, 24 hr, Compound I (1.0 or 1.25 μM), SAHA (1.0 or 2.0)
Procedure: (§1) Assessment of Apoptosis: After drug exposures, cytocentrifuge preparations are stained with Wright-Giemsa and viewed by light microscopy to evaluate the extent of apoptosis (i.e., cell shrinkage, nuclear condensation, formation of apoptotic bodies, etc.) as described previously (Yu et al., Nat. Rev. Cancer 1:294-202). For these studies, the percentage of apoptotic cells is determined by evaluating ≧500 cells/condition in triplicate. To confirm the results of morphological analysis, Annexin V/PI staining is used. Annexin V/PI (BD PharMingen, San Diego, Calif.) analysis of cell death is carried out as per the manufacturer's instructions. In studies involving TNF and TNF soluble receptor, both compound are combined and maintained at room temperature 20 min prior to use. For these experiments 1-2×10^5 cells per condition are harvested. Analysis is carried out using a Becton-Dickinson FACScan cytofluorometer (Mansfield, Mass.). To further confirm the morphology results, TUNEL staining is used. […] The slides are treated with acetic acid/ethanol (1:2), stained with terminal transferase reaction mixture containing 1× terminal transferase reaction buffer (0.25 units/μl terminal transferase, 2.5 mM CoCl2, and 2 pmol fluorescein-12-dUTM; Boehringer Mannheim, Indianapolis, Ind.), and visualized using fluorescence microscopy.

[2] = test system: K562 cells transfected with GFP alone; test: Apoptosis in sorted transiently transfected cells; settings: Table 8, 2.0 μM SAHA ± 250 nM Compound I for 24 hr
Procedure: as §1, with “instructions.” for “instructions. In studies involving TNF and TNF soluble receptor, both compound are combined and maintained at room temperature 20 min prior to use. For these experiments 1-2×10^5 cells per condition are harvested. Analysis is carried out using a Becton-Dickinson FACScan cytofluorometer (Mansfield, Mass.). To further confirm the morphology results, TUNEL staining is used.”
(§2) Transient transfections: Plasmids encoding enhanced green fluorescence protein under the transciptional control of the human cytomegalovirus (CMV) immediate-early promoter (pEGFP-C2), and HA-tagged activated MEK1 (S218D/S222D in pUSEEamp) are obtained from Clontech Laboratories (Palo Alto, Calif.) and Upstate Biotechnology (Lake Placid, N.Y.), respectively.

[3] = test system: K562 cells transfected with GFP/constitutively active MEK1/2 fusion cDNA; test: Apoptosis in sorted transiently transfected cells; settings: Table 8; GFP/MEK; 2.0 μM SAHA ± 250 nM Compound I for 24 hr
Procedure: as §1, with “instructions.” for “instructions. In studies involving TNF and TNF soluble receptor, both compound are combined and maintained at room temperature 20 min prior to use. For these experiments 1-2×10^5 cells per condition are harvested. Analysis is carried out using a Becton-Dickinson FACScan cytofluorometer (Mansfield, Mass.). To further confirm the morphology results, TUNEL staining is used.”
as §2

`O=C(CCCCCCC(=O)Nc1ccccc1)NO` [SAHA, suberoylanilide hydroxamic acid] was tested, and the “induction of p21^CIP1” value (p21^CIP1) was “robust induction”, the “increase in Hgb production” value (K562 cells; 24-hr exposure) was roughly 50% and the Hgb production (K562 cells; 48 hr, data not shown) was “substantial increases”. For the same compound, the “Compound I + SAHA % of apoptotic cells” value [1] was 6.8 ± 3.5%, the apoptosis [2] was 22.5 ± 2.6% and the apoptosis [3] was 19.8 ± 2.1%.
